One test addresses T1, human recombinant HDAC6 (Homo sapiens, UniProt Q9UBN7).
T1 construct: purchased Calbiochem 382180
T1 sequence (Q9UBN7 1-1215): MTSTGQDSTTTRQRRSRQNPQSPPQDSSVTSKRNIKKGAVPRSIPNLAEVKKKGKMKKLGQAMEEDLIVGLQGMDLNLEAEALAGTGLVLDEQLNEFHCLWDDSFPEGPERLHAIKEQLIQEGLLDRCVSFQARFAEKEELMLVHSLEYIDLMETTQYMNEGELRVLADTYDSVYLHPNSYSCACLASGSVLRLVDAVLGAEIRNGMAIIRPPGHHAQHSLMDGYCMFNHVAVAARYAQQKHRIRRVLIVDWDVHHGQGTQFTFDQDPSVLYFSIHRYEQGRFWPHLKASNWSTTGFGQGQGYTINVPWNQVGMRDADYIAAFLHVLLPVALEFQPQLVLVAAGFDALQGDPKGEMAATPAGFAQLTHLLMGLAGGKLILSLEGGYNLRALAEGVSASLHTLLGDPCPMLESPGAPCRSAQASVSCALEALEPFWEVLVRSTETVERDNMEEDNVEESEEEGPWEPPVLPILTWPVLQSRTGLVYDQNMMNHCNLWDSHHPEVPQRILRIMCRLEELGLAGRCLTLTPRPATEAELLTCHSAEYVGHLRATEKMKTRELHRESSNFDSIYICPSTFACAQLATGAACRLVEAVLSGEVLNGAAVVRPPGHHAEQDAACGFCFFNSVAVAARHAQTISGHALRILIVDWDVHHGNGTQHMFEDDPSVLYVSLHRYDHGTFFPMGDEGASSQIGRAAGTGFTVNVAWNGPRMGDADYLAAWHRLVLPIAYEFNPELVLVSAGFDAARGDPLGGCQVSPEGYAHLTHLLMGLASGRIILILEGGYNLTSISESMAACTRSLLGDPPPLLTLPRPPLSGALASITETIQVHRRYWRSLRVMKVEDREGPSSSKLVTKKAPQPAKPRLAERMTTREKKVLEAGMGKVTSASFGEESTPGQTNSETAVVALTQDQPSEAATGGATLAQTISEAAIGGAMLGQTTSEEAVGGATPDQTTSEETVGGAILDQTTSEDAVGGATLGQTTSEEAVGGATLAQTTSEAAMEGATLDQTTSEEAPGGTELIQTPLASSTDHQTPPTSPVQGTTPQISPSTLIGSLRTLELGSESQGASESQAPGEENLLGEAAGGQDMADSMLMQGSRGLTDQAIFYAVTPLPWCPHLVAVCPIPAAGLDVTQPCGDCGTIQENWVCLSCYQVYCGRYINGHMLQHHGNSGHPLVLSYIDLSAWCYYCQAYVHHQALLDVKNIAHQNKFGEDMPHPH
Put plainly: HDAC6 enzyme activity inhibition assay (in vitro, fluorimetric). The class given is biochemical. The note with it: for HDAC6 selectivity (fold): HDAC6 selectivity over HDAC1; for IC50: human recombinant HDAC6, fluorimetric kit, same protocol as HDAC1. The method in brief:
(§1)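 Human recombinant enzyme (0.3 μg for HDAC1) reacted with 10 μM Fluor de Lys-SIRT1 substrate and 5-fold compound dilutions at 30 °C for 60 min, then developer for 30 min. Fluorescence read at Ex 360/Em 460; IC50 calculated. HDAC6 run by the same protocol.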

The target of another test is T2, human recombinant HDAC1 (Homo sapiens, UniProt Q13547).
T2 construct: purchased Enzo Life Science BML-SE456
T2 sequence (Q13547 whole entry): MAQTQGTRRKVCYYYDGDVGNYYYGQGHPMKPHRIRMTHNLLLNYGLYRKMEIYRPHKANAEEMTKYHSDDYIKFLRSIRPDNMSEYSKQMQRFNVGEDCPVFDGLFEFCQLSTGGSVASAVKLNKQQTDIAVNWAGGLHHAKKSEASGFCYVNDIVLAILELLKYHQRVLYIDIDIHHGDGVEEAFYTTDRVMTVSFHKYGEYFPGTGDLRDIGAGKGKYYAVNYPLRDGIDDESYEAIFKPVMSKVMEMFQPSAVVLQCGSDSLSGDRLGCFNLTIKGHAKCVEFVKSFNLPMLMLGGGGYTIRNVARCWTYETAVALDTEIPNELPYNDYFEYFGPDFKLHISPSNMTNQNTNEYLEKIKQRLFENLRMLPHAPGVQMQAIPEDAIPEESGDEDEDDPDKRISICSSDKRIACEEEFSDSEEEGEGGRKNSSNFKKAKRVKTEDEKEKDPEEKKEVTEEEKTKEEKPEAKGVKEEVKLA
Put plainly: HDAC1 enzyme activity inhibition assay (in vitro, fluorimetric). It is filed as biochemical. The note with it: human recombinant HDAC1, fluorimetric kit, 30° C. 60 minutes. The method in brief:
as §1

Turning to `C[C@@H]1CN(Cc2ccc(C(=O)NO)cc2)C[C@H](C)N1C(=O)c1cccc(CN2CCN(S(C)(=O)=O)CC2)c1` [Compound 444, 4-(((3R,5S)-3,5-dimethyl-4-(3-((4-(methylsulfonyl)piperazin-1-yl)methyl)benzoyl)piperazin-1-yl)methyl)-N-hydroxybenzamide], the “HDAC6 selectivity (fold)” value at human recombinant HDAC6 is recorded as 146 fold. For the same molecule, the IC50 was found to be 58 nM on human recombinant HDAC6 and 8500 nM on human recombinant HDAC1.

With `C[C@@H]1CN(CCc2ccc(C(=O)NO)cc2)C[C@H](C)N1Cc1ccccc1` [Compound 218, 4-(2-((3R,5S)-4-benzyl-3,5-dimethylpiperazin-1-yl)ethyl)-N-hydroxybenzamide], on human recombinant HDAC6, the “HDAC6 selectivity (fold)” value is recorded as 15 fold and the IC50 stood at 749 nM. In addition, on human recombinant HDAC1, the IC50 is 11100 nM.

`C[C@@H]1CN(Cc2ccc(C(=O)NO)cc2)C[C@H](C)N1Cc1ccccc1C1=CCOCC1` [Compound 332, 4-(((3R,5S)-4-(2-(3,6-dihydro-2H-pyran-4-yl)benzyl)-3,5-dimethylpiperazin-1-yl)methyl)-N-hydroxybenzamide]: on human recombinant HDAC6, the “HDAC6 selectivity (fold)” value is 207 fold and the IC50 was determined as 106 nM. The IC50 at human recombinant HDAC1 worked out at 21900 nM.

For `C[C@@H]1CN(Cc2ccc(C(=O)NO)cc2)C[C@H](C)N1Cc1cc(F)ccc1F` [Compound 212, 4-(((3R,5S)-4-(2,5-difluorobenzyl)-3,5-dimethylpiperazin-1-yl)methyl)-N-hydroxybenzamide], at human recombinant HDAC6, the “HDAC6 selectivity (fold)” value was >28 fold and the half-maximal inhibitory concentration (IC50) is 358 nM. Further, on human recombinant HDAC1, the IC50 was > 10000 nM.

Consider `C[C@@H]1CN(Cc2ccc(C(=O)NO)cc2)C[C@H](C)N1Cc1ccc(CN2CCCC2)cc1` [Compound 466, 4-(((3R,5S)-3,5-dimethyl-4-(4-(pyrrolidin-1-ylmethyl)benzyl)piperazin-1-yl)methyl)-N-hydroxybenzamide], for which, on human recombinant HDAC6, the “HDAC6 selectivity (fold)” value was determined as 35 fold and the IC50 was 19 nM. The IC50 on human recombinant HDAC1 amounted to 700 nM.

Consider `C[C@@H]1CN(Cc2ccc(C(=O)NO)cc2)C[C@H](C)N1C(=O)NCc1ccccc1` [Compound 161, (2S,6R)-N-benzyl-4-(4-(hydroxycarbamoyl)benzyl)-2,6-dimethylpiperazine-1-carboxamide], for which, at human recombinant HDAC6, the “HDAC6 selectivity (fold)” value was 182 fold and the IC50 worked out at 16 nM. In addition, the IC50 on human recombinant HDAC1 came out at 2900 nM.

As for `C[C@@H]1CN(Cc2ccc(C(=O)NO)cc2)C[C@H](C)N1C(=O)NCc1cccc(F)c1` [Compound 232, (2S,6R)-N-(3-fluorobenzyl)-4-(4-(hydroxycarbamoyl)benzyl)-2,6-dimethylpiperazine-1-carboxamide], on human recombinant HDAC6, the “HDAC6 selectivity (fold)” value came to 28 fold and the IC50 worked out at 286 nM. On human recombinant HDAC1, the IC50 came to 7900 nM.

As for `CC(C)N1CC=C(c2ccccc2CN2[C@H](C)CN(Cc3ccc(C(=O)NO)cc3)C[C@@H]2C)CC1` [Compound 484, N-hydroxy-4-(((3R,5S)-4-(2-(1-isopropyl-1,2,3,6-tetrahydropyridin-4-yl)benzyl)-3,5-dimethylpiperazin-1-yl)methyl)benzamide], at human recombinant HDAC6, the “HDAC6 selectivity (fold)” value turned out to be 151 fold and the concentration for half-maximal inhibition (IC50) was determined as 130 nM. Also, the IC50 on human recombinant HDAC1 is 19600 nM.

Regarding `C[C@@H]1CN(Cc2ccc(C(=O)NO)cc2)C[C@H](C)N1Cc1ccncc1` [Compound 266, 4-(((3R,5S)-3,5-dimethyl-4-(pyridin-4-ylmethyl)piperazin-1-yl)methyl)-N-hydroxybenzamide], on human recombinant HDAC6, the “HDAC6 selectivity (fold)” value turned out to be 68 fold and the 50% inhibitory concentration (IC50) is 282 nM. The IC50 at human recombinant HDAC1 came out at 19100 nM.

Turning to `C[C@@H]1CN(Cc2ccc(C(=O)NO)cc2)C[C@H](C)N1Cc1ccco1` [Compound 145, 4-(((3R,5S)-4-(furan-2-ylmethyl)-3,5-dimethylpiperazin-1-yl)methyl)-N-hydroxybenzamide], on human recombinant HDAC6, the “HDAC6 selectivity (fold)” value came to 519 fold and the IC50 is 33 nM. In addition, the IC50 at human recombinant HDAC1 was determined as 17100 nM.

As for `C[C@@H]1CN(Cc2ccc(C(=O)NO)cc2)C[C@H](C)N1Cc1cccc(OCC2CCN(CC(C)(C)F)CC2)c1` [Compound 380, 4-(((3R,5S)-4-(3-((1-(2-fluoro-2-methylpropyl)piperidin-4-yl)methoxy)benzyl)-3,5-dimethylpiperazin-1-yl)methyl)-N-hydroxybenzamide], at human recombinant HDAC6, the “HDAC6 selectivity (fold)” value is recorded as >62 fold. The IC50 at human recombinant HDAC6 is 162 nM; at human recombinant HDAC1 it was > 10000 nM.

As to `C[C@@H]1CN(C(=O)c2ccccc2-c2ccoc2)C[C@H](C)N1Cc1ccc(C(=O)NO)cc1` [Compound 277, 4-(((2S,6R)-4-(2-(furan-3-yl)benzoyl)-2,6-dimethylpiperazin-1-yl)methyl)-N-hydroxybenzamide], at human recombinant HDAC6, the “HDAC6 selectivity (fold)” value is given as 23 fold and the 50% inhibitory concentration (IC50) worked out at 455 nM. Also, the IC50 on human recombinant HDAC1 came out at 10400 nM.

`CC(=O)N1CCN(Cc2cccc(CN3[C@H](C)CN(Cc4ccc(C(=O)NO)cc4)C[C@@H]3C)c2)CC1` [Compound 431, 4-(((3R,5S)-4-(3-((4-acetylpiperazin-1-yl)methyl)benzyl)-3,5-dimethylpiperazin-1-yl)methyl)-N-hydroxybenzamide]: at human recombinant HDAC6, the “HDAC6 selectivity (fold)” value amounted to 611 fold. Moreover, the IC50 on human recombinant HDAC6 turned out to be 22 nM; on human recombinant HDAC1 it was 13400 nM.

As to `CCN1CCN(Cc2cccc(C(=O)N3[C@H](C)CN(Cc4ccc(C(=O)NO)cc4)C[C@@H]3C)c2)CC1` [Compound 433, 4-(((3R,5S)-4-(3-((4-ethylpiperazin-1-yl)methyl)benzoyl)-3,5-dimethylpiperazin-1-yl)methyl)-N-hydroxybenzamide], on human recombinant HDAC6, the “HDAC6 selectivity (fold)” value was 71 fold and the IC50 is 49 nM. For the same molecule, the IC50 at human recombinant HDAC1 turned out to be 3500 nM.

As to `COc1cccc(NC(=O)N2C[C@@H](C)N(Cc3ccc(C(=O)NO)cc3)[C@@H](C)C2)c1` [Compound 164, (3R,5S)-4-(4-(hydroxycarbamoyl)benzyl)-N-(3-methoxyphenyl)-3,5-dimethylpiperazine-1-carboxamide], at human recombinant HDAC6, the “HDAC6 selectivity (fold)” value is 4 fold and the IC50 came to 135 nM. At human recombinant HDAC1, the IC50 was determined as 500 nM.

For the molecule `C[C@@H]1CN(Cc2ccc(-c3cccs3)cc2)C[C@H](C)N1Cc1ccc(C(=O)NO)cc1` [Compound 302, 4-(((2S,6R)-2,6-dimethyl-4-(4-(thiophen-2-yl)benzyl)piperazin-1-yl)methyl)-N-hydroxybenzamide], at human recombinant HDAC6, the “HDAC6 selectivity (fold)” value was found to be 3 fold and the IC50 amounted to 1130 nM. At human recombinant HDAC1, the IC50 was found to be 3600 nM.

As for `C[C@@H]1CN(Cc2ccc(C(=O)NO)cc2)C[C@H](C)N1Cc1cccc(CN2CCN(CC(C)(C)O)CC2)c1` [Compound 386, N-hydroxy-4-(((3R,5S)-4-(3-((4-(2-hydroxy-2-methylpropyl)piperazin-1-yl)methyl)benzyl)-3,5-dimethylpiperazin-1-yl)methyl)benzamide], at human recombinant HDAC6, the “HDAC6 selectivity (fold)” value was >77 fold and the concentration for half-maximal inhibition (IC50) stood at 130 nM. On human recombinant HDAC1, the IC50 is > 10000 nM.

As to `C[C@@H]1CN(C(=O)c2ccc(CC(=O)NO)cc2)C[C@H](C)N1Cc1ccccc1` [Compound 823, 2-(4-((3R,5S)-4-benzyl-3,5-dimethylpiperazine-1-carbonyl)phenyl)-N-hydroxyacetamide], on human recombinant HDAC6, the “HDAC6 selectivity (fold)” value came out at 66 fold and the IC50 amounted to 40 nM. The IC50 on human recombinant HDAC1 stood at 2700 nM.

Consider `C[C@@H]1CN(Cc2ccc(C(=O)NO)cc2)C[C@H](C)N1C(=O)c1cccc(CN2CCCC2)c1` [Compound 423, 4-(((3R,5S)-3,5-dimethyl-4-(3-(pyrrolidin-1-ylmethyl)benzoyl)piperazin-1-yl)methyl)-N-hydroxybenzamide], for which the “HDAC6 selectivity (fold)” value at human recombinant HDAC6 came to 22 fold. Further, the IC50 at human recombinant HDAC6 is 46 nM; on human recombinant HDAC1, 1000 nM.

For `C[C@@H]1CN(Cc2ccc(C(=O)NO)cc2F)C[C@H](C)N1Cc1cccc(CN2CCOCC2)c1` [Compound 696, 4-(((3R,5S)-3,5-dimethyl-4-(3-(morpholinomethyl)benzyl)piperazin-1-yl)methyl)-3-fluoro-N-hydroxybenzamide], on human recombinant HDAC6, the “HDAC6 selectivity (fold)” value is >1000 fold and the IC50 stood at 10 nM. On human recombinant HDAC1, the IC50 was > 10000 nM.

The values above are taken from patent US10287255B2, “Compounds as histone deacetylase 6 inhibitors and pharmaceutical compositions comprising the same” (CHONG KUN DANG PHARMACEUTICAL CORP., priority 2014, dated 2019).
